Results published in BindingDB's records for doi:10.7270/Q27H1H0J (Srmlsc, 2008).

Target: T1, M1 family aminopeptidase (Plasmodium falciparum (isolate FcB1 / Columbia), UniProt O96935)
T1 sequence (O96935 whole entry): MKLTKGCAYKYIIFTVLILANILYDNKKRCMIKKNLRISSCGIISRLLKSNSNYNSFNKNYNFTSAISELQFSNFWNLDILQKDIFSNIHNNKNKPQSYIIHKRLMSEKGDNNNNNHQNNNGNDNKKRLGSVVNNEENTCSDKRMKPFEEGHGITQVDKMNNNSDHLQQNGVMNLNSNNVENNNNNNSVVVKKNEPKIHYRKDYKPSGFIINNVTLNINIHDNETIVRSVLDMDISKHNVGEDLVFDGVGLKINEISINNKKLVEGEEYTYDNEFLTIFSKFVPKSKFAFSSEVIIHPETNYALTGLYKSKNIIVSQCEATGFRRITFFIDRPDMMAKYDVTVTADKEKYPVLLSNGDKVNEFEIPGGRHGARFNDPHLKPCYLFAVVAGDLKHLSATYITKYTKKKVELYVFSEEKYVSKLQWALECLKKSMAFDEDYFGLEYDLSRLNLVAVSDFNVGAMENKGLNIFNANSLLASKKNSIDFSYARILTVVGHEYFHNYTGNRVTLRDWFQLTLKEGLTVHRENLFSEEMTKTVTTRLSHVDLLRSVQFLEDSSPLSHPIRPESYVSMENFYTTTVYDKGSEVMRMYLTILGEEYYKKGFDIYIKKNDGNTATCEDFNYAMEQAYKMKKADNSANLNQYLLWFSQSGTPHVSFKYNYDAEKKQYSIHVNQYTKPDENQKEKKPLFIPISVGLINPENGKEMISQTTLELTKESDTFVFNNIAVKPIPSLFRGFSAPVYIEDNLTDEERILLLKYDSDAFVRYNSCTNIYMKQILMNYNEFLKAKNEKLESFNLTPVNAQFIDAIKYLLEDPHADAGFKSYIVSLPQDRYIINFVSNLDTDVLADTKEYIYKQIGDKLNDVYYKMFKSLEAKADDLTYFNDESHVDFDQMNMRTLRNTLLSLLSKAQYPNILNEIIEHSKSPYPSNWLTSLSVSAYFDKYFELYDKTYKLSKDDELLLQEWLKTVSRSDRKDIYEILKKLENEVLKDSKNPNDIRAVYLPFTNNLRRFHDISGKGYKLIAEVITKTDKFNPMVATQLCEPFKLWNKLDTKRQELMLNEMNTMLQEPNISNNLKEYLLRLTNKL
Experiment: P. falciparum M1AAP inhibitors, biochemical, fluorogenic H-Leu-NHMec substrate, 1536-well (AID 1445)

Row | SMILES | IC50
1 | CS(=O)(=O)Nc1nc2n(n1)C(c1ccccc1)CC(c1ccc(Br)cc1)=N2 (stereo not drawn) | 45.3 µM
2 | COc1ccc(-c2c/c(=N\CCC(=O)O)c3cc(C)ccc3o2)cc1 | 38.9 µM
3 | Clc1ccc(CN=Nc2nnn[nH]2)cc1 | 92.8 µM
4 | CC(NNC(=O)c1cccc(Cl)c1)=C1C(=O)c2ccccc2C1=O | 40.8 µM
5 | O=C1NC(=O)C(N=Nc2cc([N+](=O)[O-])ccc2O)C(=O)N1 | 11.4 µM
6 | Cc1ccc(-c2csc(-n3[nH]c(C)c(N=Nc4ccccc4O)c3=O)n2)cc1 | 3.37 µM
7 | N#C/C(=C\C1C=CC(=O)C([N+](=O)[O-])=C1)c1nc2ccccc2s1 (stereo not drawn) | 33.9 µM
8 | CCOc1ccc(-n2c(O)c(CN=Nc3nnc(C)c(=O)[nH]3)c3ccccc3c2=O)cc1 | 20.9 µM
9 | CCC(=O)N1N=C(C2C(=O)N(C)C(=O)N(C)C2=O)CC1c1ccccc1 (stereo not drawn) | 41.9 µM
10 | Cc1[nH]n(-c2ccccc2)c(=O)c1C=Nc1ccccc1O | 12.8 µM
11 | O=C(O)c1ccc(-c2ccc(CN=Nc3ccc([N+](=O)[O-])cc3)o2)cc1 | 43.1 µM
12 | CNC(=S)N/N=C1\C(=O)Nc2ccccc21 [1-methyl-3-[(2-oxoindol-3-yl)amino]thiourea] | 47.9 µM
13 | Nc1nnc(CC(=O)N/N=C/C2C=C([N+](=O)[O-])C=C(Br)C2=O)s1 (stereo not drawn) [2-(5-azanyl-1,3,4-thiadiazol-2-yl)-N'-[(E)-(5-bromanyl-3-nitro-6-oxidanylidene-cyclohexa-2,4-dien-1-ylidene)methyl]ethanehydrazide] | 30 µM
14 | CN1C(=O)/C(=C/c2ccc(-c3ccccc3[N+](=O)[O-])o2)S/C1=N/c1ccc(Cl)c(C(=O)O)c1 [2-Chloro-5-[3-methyl-5-[1-[5-(2-nitro-phenyl)-furan-2-yl]-meth-(Z)-ylidene]-4-oxo-thiazolidin-(2Z)-ylideneamino]-benzoic acid] | 16.1 µM
15 | CC(N=Nc1nc(C(=O)O)cs1)c1ccccc1 (stereo not drawn) [2-[2-(1-phenylethylidene)hydrazinyl]-4-thiazolecarboxylic acid] | 34.2 µM
16 | COc1ccc(CN=Nc2nc(O)c(CC(=O)O)s2)cc1OCc1ccc(Cl)cc1 [2-[2-[2-[[3-[(4-chlorophenyl)methoxy]-4-methoxy-phenyl]methylidene]hydrazinyl]-4-oxidanylidene-1,3-thiazol-5-yl]ethanoic acid] | 66.7 µM
17 | CCOC(=O)C1C(=O)C(=Cc2ccc(OCC(=O)O)c(OCC)c2)SC1=Nc1ccccc1 (stereo not drawn) [2-[4-[(Z)-(5-anilino-4-ethoxycarbonyl-3-oxo-2-thiophenylidene)methyl]-2-ethoxyphenoxy]acetic acid] | 60.2 µM
18 | CCOC(=O)C1C(=O)C(=Cc2ccc(OCC(=O)O)c(OC)c2)SC1=Nc1ccc(OC)cc1 (stereo not drawn) [2-[4-[(Z)-[4-ethoxycarbonyl-5-[(4-methoxyphenyl)amino]-3-oxidanylidene-thiophen-2-ylidene]methyl]-2-methoxy-phenoxy]ethanoic acid] | 87.3 µM
19 | COc1ccc(-c2n[nH]c3c2C2(C(=O)N(CC(=O)O)c4ccccc42)C(C#N)C(=N)O3)cc1OC (stereo not drawn) [2-[6-amino-5-cyano-3-(3,4-dimethoxyphenyl)-2'-oxo-1'-spiro[2H-pyrano[2,3-c]pyrazole-4,3'-indole]yl]acetic acid] | 43.3 µM
20 | N#CC(=NNc1ccc(Cl)cc1)C(=O)c1ccccc1 [2-[(4-chlorophenyl)hydrazono]-3-oxo-3-phenylpropanenitrile] | 106 µM
21 | CCOC(=O)C(C=NC(N)=Nc1nc2ccccc2o1)C(=O)OCC [2-[[[amino-(1,3-benzoxazol-2-ylamino)methylidene]amino]methylidene]propanedioic acid diethyl ester] | 79.2 µM
22 | O=C(O)c1cc(-c2ccc(CN=Nc3ccc([N+](=O)[O-])cn3)o2)ccc1Cl [2-chloro-5-[5-[[(5-nitropyridin-2-yl)hydrazinylidene]methyl]furan-2-yl]benzoic acid] | 12.7 µM

Row | SMILES | IC50
23 | COC1=CC(C=NNC(=O)C(Cc2c[nH]c3ccccc23)NC(=O)OCC(C)C)C=C([N+](=O)[O-])C1=O (stereo not drawn) [2-methylpropyl N-[3-(1H-indol-3-yl)-1-[2-[(E)-(3-methoxy-5-nitro-4-oxidanylidene-cyclohexa-2,5-dien-1-ylidene)methyl]hydrazinyl]-1-oxidanylidene-propan-2-yl]carbamate] | 16.7 µM
24 | O=C1Nc2ccccc2SC1C=NCc1ccccc1Cl (stereo not drawn) [2-{[(2-chlorobenzyl)amino]methylene}-2H-1,4-benzothiazin-3(4H)-one] | 5.63 µM
25 | O=C1OC(C(C=Nc2cc(Cl)ccc2O)[N+](=O)[O-])c2ccccc21 (stereo not drawn) [3-[(E)-2-[(5-chloranyl-2-oxidanyl-phenyl)amino]-1-nitro-ethenyl]-3H-2-benzofuran-1-one] | 48.8 µM
26 | COc1cc(C=Nn2c(O)csc2=S)cc(Br)c1O [3-[[(Z)-(3-bromo-5-methoxy-4-oxo-1-cyclohexa-2,5-dienylidene)methyl]amino]-2-sulfanylidene-4-thiazolidinone] | 107 µM
27 | C=c1[nH]n(-c2nnc(C)c(=O)[nH]2)c(=O)c1=Cc1ccc(N(CC)CC)cc1 [3-{4-[1-(4-Diethylamino-phenyl)-meth-(Z)-ylidene]-3-methyl-5-oxo-4,5-dihydro-pyrazol-1-yl}-6-methyl-4H -[1,2,4]triazin-5-one] | 42.6 µM
28 | COc1ccc(OC)c(C2C(C(=O)Nc3cccnc3)=C(C)N=C3CCCC(=O)C32)c1 (stereo not drawn) [4-(2,5-dimethoxyphenyl)-2-methyl-5-oxo-N-3-pyridinyl-1,4,5,6,7,8-hexahydro-3-quinolinecarboxamide] | 52.9 µM
29 | CC(=O)N1N=C(C2C(=O)N(C)C(=O)N(C)C2=O)CC1c1ccccc1 (stereo not drawn) [5-(1-acetyl-5-phenylpyrazolidin-3-ylidene)-1,3-dimethyl-1,3-diazinane-2,4,6-trione] | 16 µM
30 | NC(=NNC=c1ccc(=C2C=CC(=O)C(C(=O)O)=C2)o1)N[N+](=O)[O-] [5-(5-{2-[amino(nitroimino)methyl]carbonohydrazonoyl}-2-furyl)-2-hydroxybenzoic acid] | 10.2 µM
31 | O=C1NC(=S)NC(=O)C1N=Nc1ccc(-c2ccccc2)cc1[N+](=O)[O-] [5-[(2-nitro-4-phenylphenyl)hydrazinylidene]-2-sulfanylidene-1,3-diazinane-4,6-dione] | 10.5 µM
32 | O=C1NC(=S)NC(=O)C1N=Nc1cc2c(cc1[N+](=O)[O-])OCO2 [5-[(6-nitro-1,3-benzodioxol-5-yl)hydrazinylidene]-2-sulfanylidene-1,3-diazinane-4,6-dione] | 26.9 µM
33 | O=C1N=c2ccc(Br)cc2=C1NNc1nnn[nH]1 [5-bromanyl-3-[2-(2H-1,2,3,4-tetrazol-5-yl)hydrazinyl]indol-2-one] | 26.5 µM
34 | CCOc1cc(C2C3=C(CCCC3=O)N=C3CCCC(=O)C32)cc(Cl)c1O (stereo not drawn) [9-(3-Chloro-5-ethoxy-4-hydroxy-phenyl)-3,4,6,7,9,10-hexahydro-2H,5H-acridine-1,8-dione] | 23.9 µM
35 | CCOC(=O)C1C(=O)C(=Cc2ccc(OCC(=O)O)c(OCC)c2)SC1=Nc1ccc(C)cc1 (stereo not drawn) [(2-ethoxy-4-{[4-(ethoxycarbonyl)-5-[(4-methylphenyl)amino]-3-oxo-2(3H)-thienylidene]methyl}phenoxy)acetic acid] | 48.6 µM
36 | CC(=O)Nc1ccc(S(=O)(=O)Oc2cccc(CN=Nc3nc(O)c(CC(=O)O)s3)c2)cc1 [(2-{[3-({[4-(acetylamino)phenyl]sulfonyl}oxy)benzylidene]hydrazono}-4-oxo-1,3-thiazolidin-5-yl)acetic acid] | 52.8 µM
37 | COC1=CC(/C=C(\C#N)c2nc3ccc(C)cc3[nH]2)C=C([N+](=O)[O-])C1=O (stereo not drawn) [(2Z,3E)-3-(3-methoxy-5-nitro-4-oxocyclohexa-2,5-dien-1-ylidene)-2-(5-methyl-1,3-dihydrobenzimidazol-2-ylidene)propanenitrile] | 16.2 µM
38 | CCc1ccc2oc(-c3ccc(OC)cc3)c/c(=N\c3cccc(C(=O)O)c3)c2c1 [(3-carboxyphenyl)-[6-ethyl-2-(4-methoxyphenyl)-1-benzopyran-4-ylidene]ammonium;tetrafluoroborate] | 11.9 µM
39 | CN1CCN(CC2=c3oc(=O)c(=C4C=CCC=N4)cc3C=CC2=O)CC1 [(3E)-8-[(4-methylpiperazin-1-yl)methyl]-3-(1H-pyridin-2-ylidene)chromene-2,7-dione] | 52.2 µM
40 | O=[N+]([O-])c1cc(Br)c(O)c(CN=Nc2nnnn2-c2cccc3ccccc23)c1 [(6E)-2-bromo-6-[[2-(1-naphthalen-1-yltetrazol-5-yl)hydrazinyl]methylidene]-4-nitrocyclohexa-2,4-dien-1-one] | 6.79 µM
41 | Oc1ccc(O)n1-c1nc2n(n1)C(c1ccccc1)CC(c1ccc(Br)cc1)=N2 (stereo not drawn) [MLS000037189] | 69.7 µM
42 | O=C1CC(c2ccco2)CC(=O)C1=CNc1cc(Cl)ccc1O (stereo not drawn) [MLS000037985] | 5.58 µM
43 | COc1ccccc1C1CC(c2ccc(Cl)cc2)=Nc2nc(-n3c(O)ccc3O)nn21 (stereo not drawn) [MLS000040652] | 31.3 µM
